Values belong to the molecule of their own block, whether it stands above or below them.
Experiments:
[1] = molecular target: ATP-binding cassette sub-family C member 2 (Homo sapiens, UniProt Q92887); assay: Inhibition of recombinant human ABCC2 expressed in insect Sf21 cell plasma membrane vesicles assessed as inhibition of transporter-mediated [3H]-estradiol-17beta-glucuronide uptake by liquid scintillation counting analysis; assay type: ADME, cell membranes
[2] = molecular target: T1, ATP-binding cassette sub-family C member 3 (Homo sapiens, UniProt O15438); assay: Inhibition of recombinant human ABCC3 expressed in baculovirus infected insect Sf21 cell plasma membrane vesicles assessed as inhibition of transporter-mediated [3H]-estradiol-17beta-glucuronide uptake by liquid scintillation counting analysis; assay type: ADME
[3] = molecular target: T2, ATP-binding cassette sub-family C member 4 (Homo sapiens, UniProt O15439); assay: Inhibition of recombinant human ABCC4 expressed in baculovirus infected insect Sf21 cell plasma membrane vesicles assessed as inhibition of transporter-mediated [3H]-estradiol-17beta-glucuronide uptake by liquid scintillation counting analysis; assay type: ADME
T2 sequence (O15439 whole entry): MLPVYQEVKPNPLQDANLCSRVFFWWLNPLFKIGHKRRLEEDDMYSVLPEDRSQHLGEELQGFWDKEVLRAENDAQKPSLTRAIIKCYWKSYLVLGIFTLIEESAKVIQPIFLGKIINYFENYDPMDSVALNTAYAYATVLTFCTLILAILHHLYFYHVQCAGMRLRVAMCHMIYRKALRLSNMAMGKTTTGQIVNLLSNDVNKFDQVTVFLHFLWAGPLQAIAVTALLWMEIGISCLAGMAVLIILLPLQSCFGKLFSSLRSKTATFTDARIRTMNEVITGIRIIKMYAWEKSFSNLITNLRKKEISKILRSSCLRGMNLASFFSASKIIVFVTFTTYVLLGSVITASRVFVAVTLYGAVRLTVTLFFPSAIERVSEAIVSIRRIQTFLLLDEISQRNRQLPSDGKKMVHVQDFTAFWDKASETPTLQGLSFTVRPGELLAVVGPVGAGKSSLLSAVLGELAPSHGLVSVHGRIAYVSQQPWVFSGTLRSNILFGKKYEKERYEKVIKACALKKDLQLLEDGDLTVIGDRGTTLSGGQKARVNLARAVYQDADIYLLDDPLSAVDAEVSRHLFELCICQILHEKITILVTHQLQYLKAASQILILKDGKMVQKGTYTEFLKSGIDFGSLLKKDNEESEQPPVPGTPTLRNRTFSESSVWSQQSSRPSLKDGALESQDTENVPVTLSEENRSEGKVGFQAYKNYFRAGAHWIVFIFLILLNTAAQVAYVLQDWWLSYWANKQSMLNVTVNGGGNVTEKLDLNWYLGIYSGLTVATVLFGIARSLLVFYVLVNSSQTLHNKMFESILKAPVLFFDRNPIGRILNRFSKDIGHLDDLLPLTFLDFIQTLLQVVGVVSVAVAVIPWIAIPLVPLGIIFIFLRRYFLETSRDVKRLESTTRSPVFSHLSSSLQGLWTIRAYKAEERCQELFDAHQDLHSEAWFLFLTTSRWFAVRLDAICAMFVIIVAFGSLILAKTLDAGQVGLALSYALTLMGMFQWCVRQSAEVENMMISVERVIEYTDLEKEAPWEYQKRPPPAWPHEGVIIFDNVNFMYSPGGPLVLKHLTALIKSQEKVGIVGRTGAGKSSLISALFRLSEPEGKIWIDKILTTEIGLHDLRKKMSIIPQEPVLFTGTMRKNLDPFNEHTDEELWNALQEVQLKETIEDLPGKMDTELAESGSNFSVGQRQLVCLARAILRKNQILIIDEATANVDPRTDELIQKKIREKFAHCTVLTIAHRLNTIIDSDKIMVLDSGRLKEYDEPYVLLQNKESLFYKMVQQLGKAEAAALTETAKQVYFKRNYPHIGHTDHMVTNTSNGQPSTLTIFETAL

[4] = molecular target: Multidrug resistance-associated protein 1 (Homo sapiens, UniProt P33527); assay: Activity of recombinant human ABCC1 expressed in baculovirus infected insect Sf21 cell plasma membrane vesicles assessed as transporter-mediated drug uptake at 10 uM by liquid scintillation counting analysis in presence of ATP; assay type: ADME; settings: sf21, 10 µM, TDE = time-dependent effect
Jejunum [5] = assay: Drug transport across ligated jejunum in Abcc4-deficient mouse assessed as drug level in portal blood at 5 uM by liquid scintillation counting analysis; assay type: ADME, tissue-based
Kidney [6] = assay: Drug level in Abcc4-deficient mouse kidney at 5 uM by liquid scintillation counting analysis; assay type: ADME, tissue-based; settings: in vivo
Jejunum [7] = assay: Drug transport across apical to basolateral side in Abcc4-deficient mouse jejunal tissue explants at 50 uM by ussing chamber analysis; assay type: ADME
[8] = Drug excretion in wild type mouse urine at 5 uM by liquid scintillation counting analysis; assay type: ADME, tissue-based; settings: in vivo
[9] = Ratio of recombinant human ABCC4-mediated drug uptake in insect Sf21 cell plasma membrane vesicles to recombinant human ABCC2-mediated drug uptake in insect Sf21 cell plasma membrane vesicles; assay type: ADME, cell membranes
Jejunum [10] = assay: Drug transport across ligated jejunum in Abcc3-deficient mouse assessed as drug level in portal blood at 5 uM by liquid scintillation counting analysis; assay type: ADME, tissue-based
Intestine [11] = assay: Drug level in Abcc3/Abcc4-deficient mouse intestine at 5 uM by liquid scintillation counting analysis; assay type: ADME, tissue-based; settings: in vivo
Kidney [12] = assay: Drug level in Abcc3/Abcc4-deficient mouse kidney at 5 uM by liquid scintillation counting analysis; assay type: ADME, tissue-based; settings: in vivo
Liver [13] = assay: Drug level in wild type mouse liver at 5 uM by liquid scintillation counting analysis; assay type: ADME, tissue-based; settings: in vivo
Kidney [14] = assay: Drug level in wild type mouse kidney at 5 uM by liquid scintillation counting analysis; assay type: ADME, tissue-based; settings: in vivo
[15] = molecular target: T2, ATP-binding cassette sub-family C member 4; assay: Activity of recombinant human ABCC4 expressed in baculovirus infected insect Sf21 cell plasma membrane vesicles assessed as transporter-mediated drug uptake at 10 uM by liquid scintillation counting analysis in presence of ATP; assay type: ADME; settings: sf21, 10 µM, TDE = time-dependent effect
[16] = Drug excretion in Abcc3/Abcc4-deficient mouse urine at 5 uM by liquid scintillation counting analysis; assay type: ADME, tissue-based; settings: in vivo
[17] = molecular target: T1, ATP-binding cassette sub-family C member 3; assay: Activity of recombinant human ABCC3 expressed in baculovirus infected insect Sf21 cell plasma membrane vesicles assessed as transporter-mediated drug uptake at 10 uM by liquid scintillation counting analysis in presence of ATP; assay type: ADME; settings: sf21, 10 µM, TDE = time-dependent effect
Kidney [18] = assay: Drug level in Abcc3-deficient mouse kidney at 5 uM by liquid scintillation counting analysis; assay type: ADME, tissue-based; settings: in vivo
[19] = Ratio of recombinant human ABCC4-mediated drug uptake in insect Sf21 cell plasma membrane vesicles to recombinant human ABCC3-mediated drug uptake in insect Sf21 cell plasma membrane vesicles; assay type: ADME, cell membranes
Intestine [20] = assay: Drug level in wild type mouse intestine at 5 uM by liquid scintillation counting analysis; assay type: ADME, tissue-based; settings: in vivo
Jejunum [21] = assay: Drug transport across apical to basolateral side in Abcc3/Abcc4-deficient mouse jejunal tissue explants at 50 uM by ussing chamber analysis; assay type: ADME
Intestine [22] = assay: Drug level in Abcc4-deficient mouse intestine at 5 uM by liquid scintillation counting analysis; assay type: ADME, tissue-based; settings: in vivo
Liver [23] = assay: Drug level in Abcc4-deficient mouse liver at 5 uM by liquid scintillation counting analysis; assay type: ADME, tissue-based; settings: in vivo
Intestine [24] = assay: Drug level in Abcc3-deficient mouse intestine at 5 uM by liquid scintillation counting analysis; assay type: ADME, tissue-based; settings: in vivo
Jejunum [25] = assay: Drug transport across ligated jejunum in wild type mouse assessed as drug level in peripheral blood at 5 uM by liquid scintillation counting analysis; assay type: ADME, tissue-based; settings: other
Liver [26] = assay: Drug level in Abcc3/Abcc4-deficient mouse liver at 5 uM by liquid scintillation counting analysis; assay type: ADME, tissue-based; settings: in vivo
Jejunum [27] = assay: Drug transport across ligated jejunum in Abcc3/Abcc4-deficient mouse assessed as drug level in portal blood at 5 uM by liquid scintillation counting analysis; assay type: ADME, tissue-based
Jejunum [28] = assay: Drug transport across ligated jejunum in wild type mouse assessed as drug level in portal blood at 5 uM by liquid scintillation counting analysis; assay type: ADME, tissue-based; settings: TDE = time-dependent effect
[29] = Drug uptake in bile of Abcc3/Abcc4-deficient mouse at 5 uM by liquid scintillation counting analysis; assay type: ADME, tissue-based; settings: in vivo
[30] = Drug excretion in Abcc3-deficient mouse urine at 5 uM by liquid scintillation counting analysis; assay type: ADME, tissue-based; settings: in vivo
Jejunum [31] = assay: Drug transport across apical to basolateral side in Abcc4-deficient mouse jejunal tissue explants at 5 uM by ussing chamber analysis relative to wild type mouse; assay type: ADME
Liver [32] = assay: Drug level in Abcc3-deficient mouse liver at 5 uM by liquid scintillation counting analysis; assay type: ADME, tissue-based; settings: in vivo
Jejunum [33] = assay: Drug transport across ligated jejunum in Abcc3/Abcc4-deficient mouse assessed as drug level in peripheral blood at 5 uM by liquid scintillation counting analysis; assay type: ADME, tissue-based; settings: other
[34] = Drug excretion in Abcc4-deficient mouse urine at 5 uM by liquid scintillation counting analysis; assay type: ADME, tissue-based; settings: in vivo
Jejunum [35] = assay: Drug transport across apical to basolateral side in Abcc3/Abcc4-deficient mouse jejunal tissue explants at 5 uM by ussing chamber analysis relative to wild type mouse; assay type: ADME

T1 sequence (O15438 whole entry): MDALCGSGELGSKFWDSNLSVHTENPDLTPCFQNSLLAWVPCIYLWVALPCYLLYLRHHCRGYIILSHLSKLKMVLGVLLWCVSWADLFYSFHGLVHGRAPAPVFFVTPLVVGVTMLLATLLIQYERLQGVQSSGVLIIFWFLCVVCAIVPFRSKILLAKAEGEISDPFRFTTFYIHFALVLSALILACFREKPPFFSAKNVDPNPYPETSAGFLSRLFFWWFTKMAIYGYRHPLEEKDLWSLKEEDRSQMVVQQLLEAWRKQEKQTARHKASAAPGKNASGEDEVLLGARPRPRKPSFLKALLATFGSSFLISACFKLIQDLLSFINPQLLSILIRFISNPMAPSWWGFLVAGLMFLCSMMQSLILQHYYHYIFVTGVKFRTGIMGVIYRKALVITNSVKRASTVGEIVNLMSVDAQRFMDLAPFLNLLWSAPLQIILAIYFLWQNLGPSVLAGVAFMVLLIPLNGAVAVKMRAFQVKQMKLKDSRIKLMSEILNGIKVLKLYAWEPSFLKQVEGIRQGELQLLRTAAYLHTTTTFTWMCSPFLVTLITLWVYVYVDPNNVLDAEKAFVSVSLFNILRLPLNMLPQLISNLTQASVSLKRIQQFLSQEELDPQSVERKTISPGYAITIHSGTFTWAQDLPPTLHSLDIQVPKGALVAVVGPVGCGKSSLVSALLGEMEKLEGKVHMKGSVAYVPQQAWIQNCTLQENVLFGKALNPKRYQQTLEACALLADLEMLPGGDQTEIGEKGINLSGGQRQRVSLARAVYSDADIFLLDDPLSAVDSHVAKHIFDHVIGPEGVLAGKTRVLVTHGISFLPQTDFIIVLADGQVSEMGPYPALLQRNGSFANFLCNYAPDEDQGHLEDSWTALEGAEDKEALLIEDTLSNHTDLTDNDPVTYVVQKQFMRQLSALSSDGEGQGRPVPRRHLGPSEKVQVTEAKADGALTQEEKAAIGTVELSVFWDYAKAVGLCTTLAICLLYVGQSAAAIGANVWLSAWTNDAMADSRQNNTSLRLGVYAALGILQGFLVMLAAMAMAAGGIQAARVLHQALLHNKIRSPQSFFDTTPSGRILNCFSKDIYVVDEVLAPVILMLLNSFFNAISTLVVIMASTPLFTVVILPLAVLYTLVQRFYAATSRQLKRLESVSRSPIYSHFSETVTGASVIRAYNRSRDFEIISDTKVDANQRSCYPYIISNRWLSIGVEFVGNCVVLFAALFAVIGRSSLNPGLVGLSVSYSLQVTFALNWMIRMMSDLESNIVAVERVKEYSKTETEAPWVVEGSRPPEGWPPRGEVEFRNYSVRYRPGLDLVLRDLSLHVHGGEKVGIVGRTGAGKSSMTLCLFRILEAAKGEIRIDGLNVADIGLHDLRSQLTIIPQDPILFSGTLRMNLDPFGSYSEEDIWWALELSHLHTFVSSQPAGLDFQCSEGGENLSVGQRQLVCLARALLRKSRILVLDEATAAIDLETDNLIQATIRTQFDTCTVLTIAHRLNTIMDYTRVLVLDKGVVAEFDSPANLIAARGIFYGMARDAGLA
ATP-binding cassette sub-family C member 2, sequence (Q92887 whole entry): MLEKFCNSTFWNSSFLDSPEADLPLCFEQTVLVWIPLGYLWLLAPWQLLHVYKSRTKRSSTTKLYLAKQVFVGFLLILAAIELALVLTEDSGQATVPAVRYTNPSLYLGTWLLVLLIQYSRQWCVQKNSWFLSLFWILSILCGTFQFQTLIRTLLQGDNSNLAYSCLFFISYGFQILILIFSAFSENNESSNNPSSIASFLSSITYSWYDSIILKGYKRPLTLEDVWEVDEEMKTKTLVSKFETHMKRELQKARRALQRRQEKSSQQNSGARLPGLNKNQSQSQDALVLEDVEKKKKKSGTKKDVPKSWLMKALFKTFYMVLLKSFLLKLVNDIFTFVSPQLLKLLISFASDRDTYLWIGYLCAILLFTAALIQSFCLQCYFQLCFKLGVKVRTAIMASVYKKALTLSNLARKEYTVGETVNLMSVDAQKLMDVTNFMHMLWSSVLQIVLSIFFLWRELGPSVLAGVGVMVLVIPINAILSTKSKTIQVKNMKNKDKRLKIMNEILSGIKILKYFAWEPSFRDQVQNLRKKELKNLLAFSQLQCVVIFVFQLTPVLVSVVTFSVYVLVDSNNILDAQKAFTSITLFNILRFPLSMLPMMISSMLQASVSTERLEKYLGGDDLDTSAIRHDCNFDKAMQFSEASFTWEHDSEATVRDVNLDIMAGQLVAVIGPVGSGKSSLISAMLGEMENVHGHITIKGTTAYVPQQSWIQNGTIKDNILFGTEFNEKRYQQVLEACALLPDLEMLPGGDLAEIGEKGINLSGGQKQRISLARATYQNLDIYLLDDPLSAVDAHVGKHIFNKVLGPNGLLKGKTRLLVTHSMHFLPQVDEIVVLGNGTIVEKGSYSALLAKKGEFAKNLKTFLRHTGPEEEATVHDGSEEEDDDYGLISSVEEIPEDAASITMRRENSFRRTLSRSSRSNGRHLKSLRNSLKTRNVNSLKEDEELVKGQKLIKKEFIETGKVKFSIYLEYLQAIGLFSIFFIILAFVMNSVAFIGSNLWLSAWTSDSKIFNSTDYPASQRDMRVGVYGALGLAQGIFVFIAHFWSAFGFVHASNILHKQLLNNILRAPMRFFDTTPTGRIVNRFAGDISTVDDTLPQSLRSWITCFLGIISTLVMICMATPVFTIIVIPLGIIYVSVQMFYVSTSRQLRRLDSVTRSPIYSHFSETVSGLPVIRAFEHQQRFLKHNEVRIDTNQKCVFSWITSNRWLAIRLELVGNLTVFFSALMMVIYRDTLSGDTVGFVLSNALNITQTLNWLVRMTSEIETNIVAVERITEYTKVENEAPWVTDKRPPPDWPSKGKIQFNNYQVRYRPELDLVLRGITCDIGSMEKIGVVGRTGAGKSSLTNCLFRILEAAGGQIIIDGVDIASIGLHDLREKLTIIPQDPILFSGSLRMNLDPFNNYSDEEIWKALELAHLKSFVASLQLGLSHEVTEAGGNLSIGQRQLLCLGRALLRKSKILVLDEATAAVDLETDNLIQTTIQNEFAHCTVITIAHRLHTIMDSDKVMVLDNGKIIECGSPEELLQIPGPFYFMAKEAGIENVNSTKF
Multidrug resistance-associated protein 1, sequence (P33527 whole entry): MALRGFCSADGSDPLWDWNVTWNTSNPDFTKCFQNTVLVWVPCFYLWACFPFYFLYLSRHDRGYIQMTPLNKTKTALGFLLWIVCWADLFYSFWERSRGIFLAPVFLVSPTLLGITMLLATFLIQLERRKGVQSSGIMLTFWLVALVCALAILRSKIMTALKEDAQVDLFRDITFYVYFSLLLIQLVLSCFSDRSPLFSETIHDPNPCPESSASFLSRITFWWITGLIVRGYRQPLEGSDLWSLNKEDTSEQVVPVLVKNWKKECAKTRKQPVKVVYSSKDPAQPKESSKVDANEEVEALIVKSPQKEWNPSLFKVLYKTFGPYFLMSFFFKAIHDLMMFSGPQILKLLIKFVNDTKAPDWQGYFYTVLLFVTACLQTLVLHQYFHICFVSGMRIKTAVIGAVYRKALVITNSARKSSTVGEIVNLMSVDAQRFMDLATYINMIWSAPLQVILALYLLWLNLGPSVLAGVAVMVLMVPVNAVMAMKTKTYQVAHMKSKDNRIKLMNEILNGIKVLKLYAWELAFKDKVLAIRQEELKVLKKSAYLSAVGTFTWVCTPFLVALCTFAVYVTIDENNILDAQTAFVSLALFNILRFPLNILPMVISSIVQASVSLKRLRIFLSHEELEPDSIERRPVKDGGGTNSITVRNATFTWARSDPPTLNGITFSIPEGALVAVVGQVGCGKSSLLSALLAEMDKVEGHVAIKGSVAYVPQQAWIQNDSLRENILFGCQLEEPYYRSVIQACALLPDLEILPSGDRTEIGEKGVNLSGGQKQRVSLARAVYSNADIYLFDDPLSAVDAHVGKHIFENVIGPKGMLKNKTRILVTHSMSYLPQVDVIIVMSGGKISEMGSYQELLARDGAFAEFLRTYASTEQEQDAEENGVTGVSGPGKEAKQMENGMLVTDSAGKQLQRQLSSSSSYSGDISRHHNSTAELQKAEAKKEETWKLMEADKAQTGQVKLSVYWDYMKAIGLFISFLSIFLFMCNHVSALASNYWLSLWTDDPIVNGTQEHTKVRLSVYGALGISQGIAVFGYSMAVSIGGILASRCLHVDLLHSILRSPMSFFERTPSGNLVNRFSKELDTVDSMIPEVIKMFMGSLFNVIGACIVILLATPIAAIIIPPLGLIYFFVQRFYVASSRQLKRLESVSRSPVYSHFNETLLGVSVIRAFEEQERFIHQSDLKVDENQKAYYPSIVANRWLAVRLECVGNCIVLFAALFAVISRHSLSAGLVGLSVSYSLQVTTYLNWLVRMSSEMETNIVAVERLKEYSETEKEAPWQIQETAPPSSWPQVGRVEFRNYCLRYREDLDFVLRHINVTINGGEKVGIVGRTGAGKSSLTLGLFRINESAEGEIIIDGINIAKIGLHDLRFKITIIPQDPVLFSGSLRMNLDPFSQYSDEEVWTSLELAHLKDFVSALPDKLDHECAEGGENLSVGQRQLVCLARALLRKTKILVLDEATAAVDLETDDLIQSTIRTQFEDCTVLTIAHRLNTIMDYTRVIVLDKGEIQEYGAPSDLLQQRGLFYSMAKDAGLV

inhibition (INH) [1]: Active
inhibition (INH) [2]: Active
inhibition (INH) [3]: Active
SMILES: CCN1CCN(C(=O)N[C@@H](C(=O)N[C@@H]2C(=O)N3C(C(=O)O)=C(CSc4nnnn4C)CS[C@H]23)c2ccc(O)cc2)C(=O)C1=O [CEFOPERAZONE]

inhibition (INH) [1]: Active
inhibition (INH) [2]: Active
inhibition (INH) [3]: Active
SMILES: CO/N=C(\C(=O)N[C@@H]1C(=O)N2C(C(=O)O)=C(CSc3nc(=O)c(=O)[nH]n3C)CS[C@H]12)c1csc(N)n1 [CEFTRIAXONE]

inhibition (INH) [1]: Active
inhibition (INH) [2]: Active
inhibition (INH) [3]: Active
SMILES: CC1=C(C(=O)O)N2C(=O)[C@@H](NC(=O)[C@H](N)c3ccccc3)[C@H]2SC1 [CEPHALEXIN ANHYDROUS]

inhibition (INH) [1]: Active
inhibition (INH) [2]: Active
inhibition (INH) [3]: Active
SMILES: CC1=C(C(=O)O)N2C(=O)[C@@H](NC(=O)[C@H](N)C3=CCC=CC3)[C@H]2SC1 [CEPHRADINE]

Continued, molecule first:

SMILES: N[C@@H](C(=O)N[C@@H]1C(=O)N2C(C(=O)O)=C(Cl)CS[C@H]12)c1ccccc1 [CEFACLOR ANHYDROUS]
inhibition (INH) [1]: Active
inhibition (INH) [2]: Active
inhibition (INH) [3]: Active

SMILES: CC1=C(C(=O)O)N2C(=O)[C@@H](NC(=O)[C@H](N)c3ccc(O)cc3)[C@H]2SC1 [CEFADROXIL]
Activity [4]: tde
Drug transport (Jejunum [5]): Active
Drug uptake (Kidney [6]): Active
Drug transport (Jejunum [7]): Active
Drug excretion [8]: metabolite_detected
Ratio [9]: 3
Drug transport (Jejunum [10]): Active
Drug uptake (Intestine [11]): Active
Drug uptake (Kidney [12]): Active
Drug uptake (Liver [13]): Active
Drug uptake (Kidney [14]): Active
Activity [15]: tde
Drug excretion [16]: metabolite_detected
Activity [17]: tde
Drug uptake (Kidney [18]): Active
Ratio [19]: 6
Drug uptake (Intestine [20]): Active
Drug transport (Jejunum [21]): Active
Drug uptake (Intestine [22]): Active
Drug uptake (Liver [23]): Active
Drug uptake (Intestine [24]): Active
Drug transport (Jejunum [25]): Active
Drug uptake (Liver [26]): Active
Drug transport (Jejunum [27]): Not Active
Drug transport (Jejunum [28]): tde
Drug uptake [29]: < 0.4%
Drug excretion [30]: metabolite_detected
Drug transport (Jejunum [31]): 50%
Drug uptake (Liver [32]): Active
Drug transport (Jejunum [33]): Not Active
Drug excretion [34]: metabolite_detected
Drug transport (Jejunum [35]): 50%

SMILES: Cn1nnnc1SCC1=C(C(=O)O)N2C(=O)[C@@H](NC(=O)[C@H](O)c3ccccc3)[C@H]2SC1 [CEFAMANDOLE]
inhibition (INH) [1]: Active
inhibition (INH) [2]: Active
inhibition (INH) [3]: Active

SMILES: CO[C@@]1(NC(=O)CSCC#N)C(=O)N2C(C(=O)O)=C(CSc3nnnn3C)CS[C@@H]21 [CEFMETAZOLE]
inhibition (INH) [1]: Active
inhibition (INH) [2]: Active
inhibition (INH) [3]: Active

SMILES: CO[C@@]1(NC(=O)Cc2cccs2)C(=O)N2C(C(=O)O)=C(COC(N)=O)CS[C@@H]21 [CEFOXITIN]
inhibition (INH) [1]: Active
inhibition (INH) [2]: Active
inhibition (INH) [3]: Active

SMILES: CO/N=C(\C(=O)N[C@@H]1C(=O)N2C(C(=O)O)=C(COC(N)=O)CS[C@H]12)c1ccco1 [CEFUROXIME]
inhibition (INH) [1]: Active
inhibition (INH) [2]: Active
inhibition (INH) [3]: Active
